Legend:
hiPSCs = test: MTT assay in hiPSCs; type: cell-based, human; conditions: for IC50: Homo sapiens, 24-h exposure, read-out: IC50 (hiPSC viability)
Procedure: The cells were exposed to the test compounds for 24 h and cytotoxicity was quantified with MTT and LDH assays as described previously (Talman et al. [2011]). For the determination of cell membrane integrity, 50 µl of medium from each well was transferred onto a new 96-well plate followed by addition of 50 µl of substrate solution containing 1.3 mM β-nicotinamide adenine dinucleotide, 660 µM iodonitrotetrazolium, 54 mM L(+)-lactic acid, 280 µM phenazine methosulphate and 0.2 M Tris–HCl (pH 8.0). After a 30-min incubation, the reaction was stopped by adding 50 µl of 1 M acetic acid to each well and absorbance was measured at 490 nm using Victor2 plate reader (PerkinElmer, Turku, Finland). Spontaneous LDH release was measured from untreated cells, maximal LDH release from cells lysed with 0.9% Triton X-100 and background absorbance was measured from wells without cells. After background extraction, cytotoxicity was calculated as follows: cytotoxicity (%) = [(sample − spontaneous LDH release)/(maximal LDH release − spontaneous LDH release)] × 100. For quantification of metabolic activity, 3-(4,5-dimethylthiazol-2-yl)-2,5-diphenyltetrazolium bromide (MTT) was added to the cells at a final concentration of 0.5 mg/ml followed by 2 h incubation in cell culture conditions. The medium was then aspirated and formazan crystals were solubilized in DMSO. Absorbance was measured at 550 nm and absorbance at 650 nm was subtracted as background. […]
Human pluripotent stem cells (hiPSCs): The iPS(IMR90)-4 line (Yu et al. 2007) was purchased from WiCell (Madison, Wisconsin, USA). The cells were cultured in Essential 8 ™ medium (E8) on 6-well plates coated with Matrigel® (1:50) and passaged 1:15 approximately every four days. The cells were dissociated using Versene®, resuspended in E8 containing 10 µM ROCK inhibitor (Y-27632) and seeded at 10,000 cells/well (cytotoxicity assays) or 5,000 cells/well (high-content imaging) in Matrigel®-coated 96-well plates. The cells were incubated overnight in standard conditions prior to compound addition. […]
(§1) 1640 without glucose with B-27 supplement in order to purify cardiomyocytes. From day 15 onwards the cells were maintained in RPMI 1640 supplemented with B-27 (RB+ins). Beating hiPSC-CMs were dissociated between days 15 and 22 by incubating them in cell dissociation solution containing 40% enzyme-free cell dissociation buffer, 40% RPMI 1640 and 20% trypsin-EDTA (final trypsin concentration 0.01%) for 7–8 min, whereafter the cells were collected and trypsin was inactivated in RB+ins supplemented with 10% FBS. After centrifugation the cells were suspended in RB+ins with 10% FBS containing 10 µM ROCK inhibitor and seeded at 15,000 cells/well (cytotoxicity assays) or 20,000 cells/well (high content analysis) in gelatin-coated 96-well plates. The cells were let to attach for 2 days at 37 °C in standard conditions, whereafter the compounds were added in RB+ins. In general, the differentiation yielded an almost pure (>95%) cardiomyocyte culture.
(§2) Syntheses and characterization of compounds
Materials and general procedures. All reagents were acquired from Sigma-Aldrich (Schnelldorf, Germany) and Enamine (Kiev, Ukraine), and were used without further purification. All reactions in anhydrous solvents were conducted in oven-dried glassware under anhydrous argon. Thin-layer chromatography (TLC) was performed using Silica Gel 60 F254 (Merck) and Silica Gel 60 NH2 F254s aluminium sheets (Merck), visualized by UV illumination and stained with ninhydrin in EtOH (1.5% w/v). Microwave reactions were performed with a Biotage Initiator+ Robot Eight microwave (Uppsala, Sweden). Column chromatography was performed with an automated high performance flash chromatography Biotage Sp4-system or with a Isolera Spektra One-system (Uppsala, Sweden) using a 0.1-mm path length flow cell UV-detector/recorder module (fixed wavelength 254 nm) for the […] or a variable UV-VIS (200-800 nm) photodiode array detector for the Isolera Spektra One- […]

mESCs = test: MTT assay in mESCs; type: cell-based, mouse; conditions: 24 h; for reduction in cell viability: 30 µM
Procedure: The cells were exposed to the test compounds for 24 h and cytotoxicity was quantified with MTT and LDH assays as described previously (Talman et al. [2011]). For the determination of cell membrane integrity, 50 µl of medium from each well was transferred onto a new 96-well plate followed by addition of 50 µl of substrate solution containing 1.3 mM β-nicotinamide adenine dinucleotide, 660 µM iodonitrotetrazolium, 54 mM L(+)-lactic acid, 280 µM phenazine methosulphate and 0.2 M Tris–HCl (pH 8.0). After a 30-min incubation, the reaction was stopped by adding 50 µl of 1 M acetic acid to each well and absorbance was measured at 490 nm using Victor2 plate reader (PerkinElmer, Turku, Finland). Spontaneous LDH release was measured from untreated cells, maximal LDH release from cells lysed with 0.9% Triton X-100 and background absorbance was measured from wells without cells. After background extraction, cytotoxicity was calculated as follows: cytotoxicity (%) = [(sample − spontaneous LDH release)/(maximal LDH release − spontaneous LDH release)] × 100. For quantification of metabolic activity, 3-(4,5-dimethylthiazol-2-yl)-2,5-diphenyltetrazolium bromide (MTT) was added to the cells at a final concentration of 0.5 mg/ml followed by 2 h incubation in cell culture conditions. The medium was then aspirated and formazan crystals were solubilized in DMSO. Absorbance was measured at 550 nm and absorbance at 650 nm was subtracted as background.
Mouse embryonic stem cells (mESCs), embryoid bodies (EBs), and primary mouse embryonic fibroblasts (MEFs) were used for toxicity experiments. E14 mESCs were cultured in feeder-free conditions on plates coated with 0.1% gelatin in DMEM with 15% FBS, GlutaMax, MEM non-essential amino acids, 2-mercaptoethanol, and leukemia inhibitory factor (LIF). For toxicity assays, the cells were dissociated with TrypLe and plated at 5,000 cells/well in gelatin-coated 96-well plates 24 hours prior to compound exposures. […]
as §1, §2
Materials and general procedures. All reagents were acquired from Sigma-Aldrich (Schnelldorf, Germany) and Enamine (Kiev, Ukraine), and were used without further purification. All reactions in anhydrous solvents were conducted in oven-dried glassware under anhydrous argon. Thin-layer chromatography (TLC) was performed using Silica Gel 60 F254 (Merck) and Silica Gel 60 NH2 F254s aluminium sheets (Merck), visualized by UV illumination and stained with ninhydrin in EtOH (1.5% w/v). […] The 1H and 13C NMR spectra were recorded on a Varian

| SMILES | IC50 (hiPSCs) [nM] | reduction in cell viability (hiPSCs; hiPSCs, 24 h, at ≥ 3 µM) | reduction in cell viability (mESCs) | reduction in viability (hiPSCs; hiPSCs, 24 h, 30 µM) | sensitivity of cell type to compound (viability) (hiPSCs; hiPSCs, 24 h) | sensitivity of cell type to compound (viability) (mESCs) |
| --- | --- | --- | --- | --- | --- | --- |
| CCN(CC)c1ccc(NC(=O)c2c(-c3ccccc3)noc2C)cc1 [3i-1000] | 1460 | 93–94% | 56% | – | – | – |
| CCN(CC)c1ccc(NC(=O)c2c(C)noc2-c2cc(C)on2)cc1 [3i-1047] | – | – | 38–45% | 38–45% | – | – |
| CCC(=O)N(Cc1ccc(N(CC)CC)cc1)c1c(-c2ccccc2)noc1C [3i-1120] | 600 | – | – | – | sensitive | sensitive |
| CCN(CC)c1ccc(NC(=O)c2cc(C)oc2-c2ccccc2)cc1 [3i-1148] | 300 | – | – | – | sensitive | sensitive |
| COc1ccc(-c2cc(N)nn2C(=O)c2c(-c3ccccc3)noc2C)cc1 [3i-1229] | 2070 | – | – | – | sensitive | sensitive |

Source: article PMC6132687, “Stem cells are the most sensitive screening tool to identify toxicity of GATA4-targeted novel small-molecule compounds” (Archives of Toxicology, 2018)
